{"source": "patent US10251874B2", "about": "“Crystalline forms of a JAK inhibitor compound” (THERAVANCE BIOPHARMA R&D IP, LLC, priority 2017, dated 2019)", "key": {"JAK3": {"target": "T1, JAK3 (Homo sapiens, UniProt P52333)", "T1 construct": "GST; purchased Life Technologies", "T1 sequence (P52333 1-1124)": "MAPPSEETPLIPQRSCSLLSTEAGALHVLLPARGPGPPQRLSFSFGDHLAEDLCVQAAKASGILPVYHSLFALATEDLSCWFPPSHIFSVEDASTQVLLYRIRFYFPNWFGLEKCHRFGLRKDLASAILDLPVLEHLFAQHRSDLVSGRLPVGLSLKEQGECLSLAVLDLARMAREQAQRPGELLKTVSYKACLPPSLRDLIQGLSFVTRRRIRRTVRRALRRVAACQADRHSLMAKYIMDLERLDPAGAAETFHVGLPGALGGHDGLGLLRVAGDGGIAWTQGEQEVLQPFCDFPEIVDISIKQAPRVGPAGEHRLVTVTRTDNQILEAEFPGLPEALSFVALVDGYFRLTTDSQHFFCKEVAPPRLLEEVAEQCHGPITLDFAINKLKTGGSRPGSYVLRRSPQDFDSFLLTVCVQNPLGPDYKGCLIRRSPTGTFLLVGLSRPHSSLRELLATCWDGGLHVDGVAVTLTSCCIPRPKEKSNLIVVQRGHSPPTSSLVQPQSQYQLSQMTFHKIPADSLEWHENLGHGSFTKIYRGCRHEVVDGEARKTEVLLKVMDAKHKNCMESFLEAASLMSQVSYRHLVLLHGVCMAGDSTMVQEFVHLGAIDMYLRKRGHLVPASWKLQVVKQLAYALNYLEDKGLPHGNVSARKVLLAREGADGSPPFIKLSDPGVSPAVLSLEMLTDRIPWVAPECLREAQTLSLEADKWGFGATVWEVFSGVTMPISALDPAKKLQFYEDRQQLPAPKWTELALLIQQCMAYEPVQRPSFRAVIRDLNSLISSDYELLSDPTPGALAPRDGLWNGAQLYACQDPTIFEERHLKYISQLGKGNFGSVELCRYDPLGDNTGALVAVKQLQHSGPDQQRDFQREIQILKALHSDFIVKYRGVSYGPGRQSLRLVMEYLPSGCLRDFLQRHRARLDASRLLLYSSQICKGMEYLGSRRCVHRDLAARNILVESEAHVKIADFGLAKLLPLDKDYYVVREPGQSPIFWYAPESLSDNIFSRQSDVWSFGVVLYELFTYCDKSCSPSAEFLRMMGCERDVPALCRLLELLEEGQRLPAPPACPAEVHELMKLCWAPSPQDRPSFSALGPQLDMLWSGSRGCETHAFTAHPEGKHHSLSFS", "assay": "Assay 1: LanthaScreen biochemical JAK kinase assay, JAK3", "conditions": "converted from pIC50 by Cheng-Prusoff; ATP at Km 1.6 μM; read-out: JAK 3 pKi (converted)", "description": "A panel of four LanthaScreen JAK biochemical assays (JAK1, 2, 3 and Tyk2) were carried in a common kinase reaction buffer (50 mM HEPES, pH 7.5, 0.01% Brij-35, 10 mM MgCl2, and 1 mM EGTA). Recombinant GST-tagged JAK enzymes and a GFP-tagged STAT1 peptide substrate were obtained from Life Technologies.\nATP was subsequently added to initiate the kinase reactions in 10 μL total volume, with 1% DMSO. […] Kinase reactions were allowed to proceed for 1 hour at ambient temperature before a 10 μL preparation of EDTA (10 mM final concentration) and Tb-anti-pSTAT1 (pTyr701) antibody (Life Technologies, 2 nM final concentration) in TR-FRET dilution buffer (Life Technologies) was added. […] Emission ratio signals (520 nm/495 nm) were recorded and utilized to calculate the percent inhibition values based on DMSO and background controls.\nFor dose-response analysis, percent inhibition data were plotted vs. compound concentrations, and IC50 values were determined from a 4-parameter robust fit model with the Prism software (GraphPad Software)."}, "[1]": {"tested_on": "IL-13 induced pSTAT6 in lung tissue", "assay": "Assay 9: Murine model of IL-13 induced pSTAT6 induction in lung tissue", "format": "in vivo, balb/c mice", "conditions": "mouse, 0.5 mg/mL 50 μL oral aspiration; after IL-13 challenge (so in the source)", "description": "11-13 is an important cytokine underlying the pathophysiology of asthma (Kudlacz et al. Eur. J. Pharmacol, 2008, 582,154-161). IL-13 binds to cell surface receptors activating members of the Janus family of kinases (JAK) which then phosphorylate STAT6 and subsequently activates further transcription pathways. In the described model, a dose of IL-13 was delivered locally into the lungs of mice to induce the phosphorylation of STAT6 (pSTAT6) which is then measured as the endpoint.\nAdult balb/c mice from Harlan were used in the assay. On the day of study, animals were lightly anesthetized with isoflurane and administered either vehicle or test compound (0.5 mg/mL, 50 μL total volume over several breaths) via oral aspiration. Animals were placed in lateral recumbency post dose and monitored for full recovery from anesthesia before being returned to their home cage. Four hours later, animals were once again briefly anesthetized and challenged with either vehicle or IL-13 (0.03 μg total dose delivered, 50 μL total volume) via oral aspiration before being monitored for recovery from anesthesia and returned to their home cage. […] using an anti-pSTAT6 ELISA (rabbit mAb capture/coating antibody; mouse mAb detection/report antibody: anti-pSTAT6-pY641; secondary antibody: anti-mouse IgG-HRP) and analyzed for total drug concentration as described above in Assay 12. […]"}}}
{"molecule": "CCc1cc(O)c(F)cc1-c1ccc2c(-c3nc4c([nH]3)CCN(C3CCN(C)CC3)C4)n[nH]c2c1", "note": "[Compound 1, 5-ethyl-2-fluoro-4-(3-(5-(1-methylpiperidin-4-yl)-4,5,6,7-tetrahydro-1H-imidazo[4,5-c]pyridin-2-yl)-1H-indazol-6-yl)phenol]", "values": [{"measurement": "Ki", "setting": "JAK3", "result": 0.2, "unit": "nM"}, {"measurement": "inhibition of STAT6 phosphorylation in lung", "setting": "[1]", "result": "about 60%"}]}
